Reference: US20220265817A1, “THERAPEUTIC COMPOSITIONS AND METHODS FOR TREATING HEPATITIS B” (priority 2017, published 2022)
pEC50: −log10 of the molar value. Like-named read-outs stand apart in the source and are kept apart here.

Columns and labels:
[1] = tested on: D type HBV in primary human hepatocytes (HBsAg); test: microbe, parasite or virus in culture; assay type: cell-based; settings: Hepatitis B virus, Hepatocyte
Procedure, shortened: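 HBsAg inhibition versus DMSO control was determined by ELISA of day 8 supernatants. Percoll-purified PHHs received D type HBV one day after seeding, with compounds from day 2 and media changes every other day. Singles at 7 concentrations (3-fold, triplicate); pairs in 5×5 matrices.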

[2] = tested on: D type HBV in primary human hepatocytes; test: microbe, parasite or virus in culture; assay type: cell-based; settings: Hepatitis B virus, Hepatocyte
Procedure, shortened: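 Supernatants collected on day 8 were assayed for HBV DNA by qPCR after compound exposure beginning day 2, with media and compound replaced every second day, in hepatocytes infected on day 1 with D type HBV. Dose-response: 7 points, 3-fold steps, triplicate; pairwise combinations tested as 5×5 matrix, synergy by MacSynergy.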

[3] = tested on: HBV rcDNA in HepDE19 cells; test: HepDE19 cell culture system, rcDNA quantitation using bDNA assay, MacSynergy II; assay type: cell-based, human hepatoma cell line; settings: for AVERAGE % INHIBITION: GLS-4 0 μM; for pEC50: Hepatitis B virus
Protocol: In vitro combination studies were conducted using the method of Prichard and Shipman (Prichard M N, and Shipman C Jr., Antiviral Research, 1990, 14 (4-5), 181-205; and Prichard M N, et. al., MacSynergy II). HepDE19 cell culture system is a HepG2 (human hepatocarcinoma) derived cell line that supports HBV DNA replication and cccDNA formation in a tetracycline (Tet)-regulated manner and produces HBV rcDNA and a detectable reporter molecule dependent on the production and maintenance of cccDNA (Guo et al 2007. J. Virol 81:12472-12484). HepDE19 (50,000 cells/well) were plated in 96 well collagen-coated tissue-culture treated microtiter plates in DMEM/F12 medium supplemented with 10% fetal bovine serum, 1% penicillin-streptomycin and 1 μg/ml tetracycline and incubated in a humidified incubator at 37° C. and 5% CO2 overnight. Next day, the cells were switched to fresh medium without tetracycline and incubated for 4 hrs at 37° C. and 5% CO2. […] The two inhibitors were tested both singly as well as in combinations in a checkerboard fashion such that each concentration of inhibitor A was combined with each concentration of inhibitor B to determine their combination effects on inhibition of rcDNA production. Following a 7 day-incubation of cells with compound combinations, the level of rcDNA present in the inhibitor-treated wells was measured using a Quantigene 2.0 bDNA assay kit (Affymetrix, Santa Clara, Calif.) with HBV specific custom probe set and manufacturers instructions. […] The RLU data from the single compound treated cells were analyzed using XL-Fit module in Microsoft Excel to determine EC50 values using a 4-parameter curve fitting algorithm. Concurrently, the effect of compounds on cell viability was assessed using replicate plates, plated at a density of 5,000 cells/well and incubated for 4 days, to determine the ATP content as a measure of cell viability using the cell-titer glo reagent (CTG; Promega Corporation, Madison, Wis.) as per manufacturer's instructions.
In vitro combination studies were conducted using the method of Prichard and Shipman (Prichard M N, Shipman C, Jr., Antiviral Res, 14, 181-205 (1990)). The HepDE19 cell line was developed as described in Guo et al. (Guo et al., J Virol, 81, 12472-12484 (2007)). It is a human hepatoma cell line stably transfected with the HBV genome, and which can express HBV pregenomic RNA and support HBV rcDNA (relaxed circular DNA) synthesis in a tetracycline-regulated manner. HepDE19 cells were plated in 96 well tissue-culture treated microtiter plates in DMEM/F12 medium supplemented with 10% fetal bovine serum+1% penicillin-streptomycin without tetracycline and incubated in a humidified incubator at 37° C. and 5% CO2 overnight. […] The two inhibitors were tested both singly as well as in combinations in a checkerboard fashion such that each concentration of inhibitor A was combined with each concentration of inhibitor B to determine their combination effects on inhibition of rcDNA production. Following a 48 hour-incubation, the level of rcDNA present in the inhibitor-treated wells was measured using a bDNA assay (Affymetrix) with HBV specific custom probe set and manufacturers instructions. […] Concurrently, the effect of inhibitor combinations on cell viability was assessed using replicate plates that were used to determine the ATP content as a measure of cell viability using the Cell-TiterGlo reagent (Promega) as per manufacturer's instructions.
In vitro combination studies were conducted using the method of Prichard and Shipman (1990) (Prichard M N, Shipman C, Jr. 1990. A three-dimensional model to analyze drug-drug interactions. Antiviral Res 14:181-205 AND Prichard M N. 1992. MacSynergy II, University of Michigan).

**Q.** Which results are given for `CC[C@@H](C)NS(=O)(=O)c1ccc(F)c(C(=O)Nc2ccc(F)c(F)c2)c1` [Compound 3]?
**A.** pEC50 ([1]; 456 h, read-out: Inhibitor B EC50): 5.11; pEC50 ([1]; 576 h, read-out: Inhibitor B EC50 HBsAg): 5.11; inhibition at 0.06173 µM ([1]; read-out: AVERAGE % INHIBITION HBsAg, COMPOUND 3 61.73 nM alone (Table 19b)): -20%; inhibition at 0.06864 µM ([1]; read-out: AVERAGE % INHIBITION HBsAg, COMPOUND 3 68.64 nM alone (Table 20b)): -16.4%; inhibition at 0.18519 µM ([1]; read-out: AVERAGE % INHIBITION HBsAg, COMPOUND 3 185.19 nM alone (Table 19b)): -17.3%; inhibition at 0.20593 µM ([1]; read-out: AVERAGE % INHIBITION HBsAg, COMPOUND 3 205.93 nM alone (Table 20b)): -21.6%; inhibition at 0.55556 µM ([1]; read-out: AVERAGE % INHIBITION HBsAg, COMPOUND 3 555.56 nM alone (Table 19b)): -14%; inhibition at 0.61778 µM ([1]; read-out: AVERAGE % INHIBITION HBsAg, COMPOUND 3 617.78 nM alone (Table 20b)): -5.12%; inhibition at 1.66667 µM ([1]; read-out: AVERAGE % INHIBITION HBsAg, COMPOUND 3 1666.67 nM alone (Table 19b)): 1.44%; inhibition at 1.85333 µM ([1]; read-out: AVERAGE % INHIBITION HBsAg, COMPOUND 3 1853.33 nM alone (Table 20b)): 14.6%; inhibition at 5 µM ([1]; read-out: AVERAGE % INHIBITION HBsAg, COMPOUND 3 5000.00 nM alone (Table 19b)): 28.2%; inhibition at 5.56 µM ([1]; read-out: AVERAGE % INHIBITION HBsAg, COMPOUND 3 5560.00 nM alone (Table 20b)): 43.8%; inhibition at 61.73 µM ([1]; read-out: AVERAGE % INHIBITION HBsAg, COMPOUND 3 61.73 μM alone): -5.49%; inhibition at 185.19 µM ([1]; read-out: AVERAGE % INHIBITION HBsAg, COMPOUND 3 185.19 μM alone): -1.46%; inhibition at 555.56 µM ([1]; read-out: AVERAGE % INHIBITION HBsAg, COMPOUND 3 555.56 μM alone): 4.63%; pEC50 ([1]; read-out: Inhibitor EC50): 5.11; pEC50 ([2]; 456 h, HBV DNA endpoint, PHH, determined in an earlier separate experiment (Table 19d), read-out: Inhibitor B EC50): 6.06; pEC50 ([2]; 576 h, PHH, determined in an earlier separate experiment (Table 24d), read-out: Inhibitor B EC50 HBV DNA): 6.06; inhibition at 0.06173 µM ([2]; read-out: AVERAGE % […] DNA, COMPOUND 3 61.73 nM alone (Table 19a)): -28.1%; inhibition at 0.06864 µM ([2]; read-out: AVERAGE % […] DNA, COMPOUND 3 68.64 nM alone (Table 20a)): -2.79%; inhibition at 0.18519 µM ([2]; read-out: AVERAGE % […] DNA, COMPOUND 3 185.19 nM alone (Table 19a), read-out: AVERAGE % INHIBITION HBV DNA): -25.9%; inhibition at 0.20593 µM ([2]; read-out: AVERAGE % […] DNA, COMPOUND 3 205.93 nM alone (Table 20a)): -5.02%; inhibition at 0.55556 µM ([2]; read-out: AVERAGE % […] DNA, COMPOUND 3 555.56 nM alone (Table 19a), read-out: AVERAGE % INHIBITION HBV DNA): -3.32%; inhibition at 0.61778 µM ([2]; read-out: AVERAGE % […] DNA, COMPOUND 3 617.78 nM alone (Table 20a)): 34.8%; inhibition at 1.66667 µM ([2]; read-out: AVERAGE % […] DNA, COMPOUND 3 1666.67 nM alone (Table 19a)): 25.9%; inhibition at 1.85333 µM ([2]; read-out: AVERAGE % […] DNA, COMPOUND 3 1853.33 nM alone (Table 20a)): 66.4%; inhibition at 5 µM ([2]; read-out: AVERAGE % […] DNA, COMPOUND 3 5000.00 nM alone (Table 19a), read-out: AVERAGE % INHIBITION HBV DNA): 74.8%; inhibition at 5.56 µM ([2]; read-out: AVERAGE % […] DNA, COMPOUND 3 5560.00 nM alone (Table 20a)): 85.3%; inhibition at 61.73 µM ([2]; read-out: AVERAGE % […] DNA, COMPOUND 3 61.73 μM alone): -11.7%; inhibition at 185.19 µM ([2]; read-out: AVERAGE % […] DNA, COMPOUND 3 185.19 μM alone): 4.14%; inhibition at 555.56 µM ([2]; read-out: AVERAGE % […] DNA, COMPOUND 3 555.56 μM alone): 26.5%; inhibition at 1666.67 µM ([2]; read-out: AVERAGE % […] DNA, COMPOUND 3 1666.67 μM alone): 69.4%; inhibition at 5000 µM ([2]; read-out: AVERAGE % […] DNA, COMPOUND 3 5000.00 μM alone): 84.3%; pEC50 ([2]; HBV DNA, determined in an earlier separate experiment, read-out: Inhibitor EC50): 6.06; AVERAGE % INHIBITION ([3]; COMPOUND 3 0.040 μM): 11.14%; AVERAGE % INHIBITION ([3]; COMPOUND 3 0.110 μM): 19.99%; AVERAGE % INHIBITION ([3]; COMPOUND 3 0.330 μM): 56.68%; AVERAGE % INHIBITION ([3]; COMPOUND 3 1.000 μM): 86.87%; AVERAGE % INHIBITION ([3]; COMPOUND 3 3.000 μM): 94.49%; pEC50 ([3]; HepDE19, rcDNA, bDNA assay, DE19 cells, read-out: Inhibitor A EC50): 6.57; pEC50 ([3]; HepDE19, rcDNA by bDNA assay, single agent, read-out: INHIBITOR A EC50): 6.34
